According to patent US9340504B2, “Pyridine and piperidine derivatives as novel sodium channel blockers” (priority 2013, dated 2016):
Read-outs that look alike come from different tables or passages of the source.

Target: human Nav1.7 (Homo sapiens (Human), UniProt Q15858)
Experiment: FLIPR or FLIPR TETRA sodium dye assay with KCl and test article pre-incubation
Format: cell-based
Conditions: read-out: Nav1.7 Activity (μM) FLIPR assay IC50 (μM) ± SEM
[1] = recombinant HEK293 cells expressing human Nav1.7 alpha subunit, CoroNa Green sodium dye, veratridine and scorpion venom as agonists

Chain of human Nav1.7 (Q15858 with tags, fused parts or gaps limits assumed): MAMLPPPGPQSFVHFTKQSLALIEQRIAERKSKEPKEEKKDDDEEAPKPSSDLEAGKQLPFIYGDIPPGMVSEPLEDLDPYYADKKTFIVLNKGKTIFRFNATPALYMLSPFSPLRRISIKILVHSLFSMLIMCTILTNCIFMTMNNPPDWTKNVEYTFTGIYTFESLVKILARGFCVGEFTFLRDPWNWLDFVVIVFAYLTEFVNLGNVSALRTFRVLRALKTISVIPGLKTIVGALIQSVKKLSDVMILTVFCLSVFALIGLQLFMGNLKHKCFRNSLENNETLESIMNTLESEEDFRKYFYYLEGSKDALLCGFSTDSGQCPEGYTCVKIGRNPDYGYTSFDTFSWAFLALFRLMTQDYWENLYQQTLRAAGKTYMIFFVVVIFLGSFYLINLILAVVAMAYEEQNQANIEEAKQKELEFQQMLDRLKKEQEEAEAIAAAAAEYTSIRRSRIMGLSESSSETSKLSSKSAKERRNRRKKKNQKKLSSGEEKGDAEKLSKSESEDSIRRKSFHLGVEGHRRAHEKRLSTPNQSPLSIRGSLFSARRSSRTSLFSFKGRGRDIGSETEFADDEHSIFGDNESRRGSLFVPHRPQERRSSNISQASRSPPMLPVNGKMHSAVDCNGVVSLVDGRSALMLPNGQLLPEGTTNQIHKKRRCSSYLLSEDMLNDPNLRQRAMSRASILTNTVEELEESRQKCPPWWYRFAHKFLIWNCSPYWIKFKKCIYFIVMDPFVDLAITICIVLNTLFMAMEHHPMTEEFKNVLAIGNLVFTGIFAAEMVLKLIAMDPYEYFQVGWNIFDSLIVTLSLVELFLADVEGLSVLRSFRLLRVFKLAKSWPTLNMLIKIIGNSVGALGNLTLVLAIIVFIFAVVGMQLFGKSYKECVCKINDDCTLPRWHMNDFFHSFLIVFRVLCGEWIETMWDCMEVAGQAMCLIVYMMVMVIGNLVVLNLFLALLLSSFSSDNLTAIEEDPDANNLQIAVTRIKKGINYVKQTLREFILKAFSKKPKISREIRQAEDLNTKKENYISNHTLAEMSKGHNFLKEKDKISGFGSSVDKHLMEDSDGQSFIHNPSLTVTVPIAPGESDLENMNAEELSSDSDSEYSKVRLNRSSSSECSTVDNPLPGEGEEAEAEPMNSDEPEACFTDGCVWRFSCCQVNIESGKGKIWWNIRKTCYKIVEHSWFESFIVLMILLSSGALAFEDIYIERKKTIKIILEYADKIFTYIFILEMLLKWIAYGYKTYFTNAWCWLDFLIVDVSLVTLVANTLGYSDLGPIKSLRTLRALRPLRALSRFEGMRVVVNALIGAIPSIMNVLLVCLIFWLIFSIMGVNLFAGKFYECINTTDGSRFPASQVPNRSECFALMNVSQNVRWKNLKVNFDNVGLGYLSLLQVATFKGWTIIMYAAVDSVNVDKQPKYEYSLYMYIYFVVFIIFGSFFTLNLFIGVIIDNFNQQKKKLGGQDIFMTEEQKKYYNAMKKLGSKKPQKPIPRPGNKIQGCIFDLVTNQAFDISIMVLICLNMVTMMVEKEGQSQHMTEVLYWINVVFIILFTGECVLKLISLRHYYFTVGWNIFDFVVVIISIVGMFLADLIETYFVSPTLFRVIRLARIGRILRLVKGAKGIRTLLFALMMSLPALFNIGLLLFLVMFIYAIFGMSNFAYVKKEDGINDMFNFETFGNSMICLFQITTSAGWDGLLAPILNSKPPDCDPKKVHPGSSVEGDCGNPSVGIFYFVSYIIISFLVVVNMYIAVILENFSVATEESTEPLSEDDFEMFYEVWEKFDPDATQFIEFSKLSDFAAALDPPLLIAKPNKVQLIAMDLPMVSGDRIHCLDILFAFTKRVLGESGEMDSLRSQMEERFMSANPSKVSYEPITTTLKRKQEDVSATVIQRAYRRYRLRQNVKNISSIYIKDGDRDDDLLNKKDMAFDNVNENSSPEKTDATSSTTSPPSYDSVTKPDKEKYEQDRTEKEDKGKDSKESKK

**Q.** How did the IC50 [1] turn out when `Oc1ccccc1Cc1cccc(-c2ccc(OCC(F)(F)F)nc2)n1` [Compound 8, 2-((6′-(2,2,2-trifluoroethoxy)-[2,3′-bipyridin]-6-yl)methyl)phenol] was run?
**A.** The IC50 was greater than 20 µM.

**Q.** How did the IC50 [1] turn out when `COc1ncccc1-c1ccccc1Cc1cccc(-c2ccc(OCC(F)(F)F)nc2)n1` [Compound 11, 6-(2-(2-methoxypyridin-3-yl)benzyl)-6′-(2,2,2-trifluoroethoxy)-2,3′-bipyridine] was run?
**A.** The IC50 was greater than 20 µM.

**Q.** With `Fc1ccc(-c2ccccc2Cc2cccc(-c3ccc(OCC(F)(F)F)nc3)n2)cn1` [Compound 12, 6-(2-(6-fluoropyridin-3-yl)benzyl)-6′-(2,2,2-trifluoroethoxy)-2,3′-bipyridine] as the compound, how does the IC50 [1] read?
**A.** The IC50 was greater than 20 µM.

**Q.** With `COc1ncc(-c2ccccc2Cc2cccc(-c3ccc(OCC(F)(F)F)nc3)n2)cn1` [Compound 13, 6-(2-(2-methoxypyrimidin-5-yl)benzyl)-6′-(2,2,2-trifluoroethoxy)-2,3′-bipyridine] as the compound, how does the IC50 read?
**A.** Its IC50 is 0.849 ± 0.069 µM.

**Q.** For `CSc1ncc(-c2ccccc2Cc2cccc(-c3ccc(OCC(F)(F)F)nc3)n2)cn1` [Compound 14, 6-(2-(2-(methylthio)pyrimidin-5-yl)benzyl)-6′-(2,2,2-trifluoroethoxy)-2,3′-bipyridine], which IC50 [1] is on record?
**A.** Its IC50 is 0.947 ± 0.06 µM.

**Q.** For `CN(C)c1ncc(-c2ccccc2Cc2cccc(-c3ccc(OCC(F)(F)F)nc3)n2)cn1` [Compound 15, N,N-dimethyl-5-(2-((6′-(2,2,2-trifluoroethoxy)-[2,3′-bipyridin]-6-yl)methyl)phenyl)pyrimidin-2-amine], which IC50 [1] is on record?
**A.** The IC50 was 0.34 ± 0.012 µM.
